Source: the supplement of paper PMC4862054

tested on: HCC1937; test: normalised response (% of control), CellTiter-Glo; higher = more viable cells (100 = DMSO, 0 = benzethonium chloride kill control); conditions: incubation time: 72 h
Method in brief: (§1)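 Values are normalised signals, each belonging to one concentration of the series. Breast cancer cells (20 µl suspension) were seeded into 384-well plates with compound at 5 concentrations in 10-fold steps over a compound-specific 10,000-fold range and incubated 72 h. Readouts were CellTox Green fluorescence (485/520 nm), then CellTiter-Glo luminescence after 10 min at room temperature, with each plate set to 0.1 % DMSO as 100 and a positive kill control as 0.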

Structure (SMILES) | normalised response [%]
N#Cc1ccc(COC[C@H]2O[C@@H](n3c(NCc4ccc(Cl)c(Cl)c4)nc4c(N)ncnc43)[C@H](O)[C@@H]2O)cc1 (1 nM) | 103
COc1cc(OC2CCN(C)CC2)ccc1Nc1ncc2c(n1)n(C1CCCC1)c(=O)n2C [AZ 3146] (1 nM) | 95.9
CN(C)c1nc(N(C)C)nc(N(C)C)n1 [Altretamine] (1 nM) | 93.1
O=C(/C=C/c1cccc(S(=O)(=O)Nc2ccccc2)c1)NO [Belinostat] (1 nM) | 96.5
O=P1(N(CCCl)CCCl)NCCCO1 (stereo not given) [Cyclophosphamide] (4 nM) | 96.7

tested on: CAL-120; test: as above; conditions: incubation time: 72 h
Method in brief: as §1

Structure (SMILES) | normalised response [%]
N#Cc1ccc(COC[C@H]2O[C@@H](n3c(NCc4ccc(Cl)c(Cl)c4)nc4c(N)ncnc43)[C@H](O)[C@@H]2O)cc1 (1 nM) | 108
COc1cc(OC2CCN(C)CC2)ccc1Nc1ncc2c(n1)n(C1CCCC1)c(=O)n2C [AZ 3146] (1 nM) | 105
CN(C)c1nc(N(C)C)nc(N(C)C)n1 [Altretamine] (1 nM) | 97
O=C(/C=C/c1cccc(S(=O)(=O)Nc2ccccc2)c1)NO [Belinostat] (1 nM) | 96.6
O=P1(N(CCCl)CCCl)NCCCO1 (stereo not given) [Cyclophosphamide] (4 nM) | 93.4

tested on: BT-474; test: as above; conditions: incubation time: 72 h
Method in brief: as §1

Structure (SMILES) | normalised response [%]
N#Cc1ccc(COC[C@H]2O[C@@H](n3c(NCc4ccc(Cl)c(Cl)c4)nc4c(N)ncnc43)[C@H](O)[C@@H]2O)cc1 (1 nM) | 109
COc1cc(OC2CCN(C)CC2)ccc1Nc1ncc2c(n1)n(C1CCCC1)c(=O)n2C [AZ 3146] (1 nM) | 95.5
CN(C)c1nc(N(C)C)nc(N(C)C)n1 [Altretamine] (1 nM) | 106
O=C(/C=C/c1cccc(S(=O)(=O)Nc2ccccc2)c1)NO [Belinostat] (1 nM) | 91
O=P1(N(CCCl)CCCl)NCCCO1 (stereo not given) [Cyclophosphamide] (4 nM) | 93.9

tested on: SK-BR-3; test: as above; conditions: incubation time: 72 h
Method in brief: as §1

Structure (SMILES) | normalised response [%]
N#Cc1ccc(COC[C@H]2O[C@@H](n3c(NCc4ccc(Cl)c(Cl)c4)nc4c(N)ncnc43)[C@H](O)[C@@H]2O)cc1 (1 nM) | 109
COc1cc(OC2CCN(C)CC2)ccc1Nc1ncc2c(n1)n(C1CCCC1)c(=O)n2C [AZ 3146] (1 nM) | 98.3
CN(C)c1nc(N(C)C)nc(N(C)C)n1 [Altretamine] (1 nM) | 108
O=C(/C=C/c1cccc(S(=O)(=O)Nc2ccccc2)c1)NO [Belinostat] (1 nM) | 87.8
O=P1(N(CCCl)CCCl)NCCCO1 (stereo not given) [Cyclophosphamide] (4 nM) | 110

tested on: HCC1143; test: as above; conditions: incubation time: 72 h
Method in brief: as §1

Structure (SMILES) | normalised response [%]
N#Cc1ccc(COC[C@H]2O[C@@H](n3c(NCc4ccc(Cl)c(Cl)c4)nc4c(N)ncnc43)[C@H](O)[C@@H]2O)cc1 (1 nM) | 108
COc1cc(OC2CCN(C)CC2)ccc1Nc1ncc2c(n1)n(C1CCCC1)c(=O)n2C [AZ 3146] (1 nM) | 98.9
CN(C)c1nc(N(C)C)nc(N(C)C)n1 [Altretamine] (1 nM) | 99.6
O=C(/C=C/c1cccc(S(=O)(=O)Nc2ccccc2)c1)NO [Belinostat] (1 nM) | 91.8
O=P1(N(CCCl)CCCl)NCCCO1 (stereo not given) [Cyclophosphamide] (4 nM) | 100

tested on: MDA-MB-468; test: as above; conditions: incubation time: 72 h
Method in brief: as §1

Structure (SMILES) | normalised response [%]
N#Cc1ccc(COC[C@H]2O[C@@H](n3c(NCc4ccc(Cl)c(Cl)c4)nc4c(N)ncnc43)[C@H](O)[C@@H]2O)cc1 (1 nM) | 107
COc1cc(OC2CCN(C)CC2)ccc1Nc1ncc2c(n1)n(C1CCCC1)c(=O)n2C [AZ 3146] (1 nM) | 101
CN(C)c1nc(N(C)C)nc(N(C)C)n1 [Altretamine] (1 nM) | 101
O=C(/C=C/c1cccc(S(=O)(=O)Nc2ccccc2)c1)NO [Belinostat] (1 nM) | 94.9
O=P1(N(CCCl)CCCl)NCCCO1 (stereo not given) [Cyclophosphamide] (4 nM) | 102

tested on: MFM-223; test: as above; conditions: incubation time: 72 h
Method in brief: as §1

Structure (SMILES) | normalised response [%]
N#Cc1ccc(COC[C@H]2O[C@@H](n3c(NCc4ccc(Cl)c(Cl)c4)nc4c(N)ncnc43)[C@H](O)[C@@H]2O)cc1 (1 nM) | 107
COc1cc(OC2CCN(C)CC2)ccc1Nc1ncc2c(n1)n(C1CCCC1)c(=O)n2C [AZ 3146] (1 nM) | 98.2
CN(C)c1nc(N(C)C)nc(N(C)C)n1 [Altretamine] (1 nM) | 103
O=C(/C=C/c1cccc(S(=O)(=O)Nc2ccccc2)c1)NO [Belinostat] (1 nM) | 89.2
O=P1(N(CCCl)CCCl)NCCCO1 (stereo not given) [Cyclophosphamide] (4 nM) | 105

tested on: MDA-MB-231; test: as above; conditions: incubation time: 72 h
Method in brief: as §1

Structure (SMILES) | normalised response [%]
N#Cc1ccc(COC[C@H]2O[C@@H](n3c(NCc4ccc(Cl)c(Cl)c4)nc4c(N)ncnc43)[C@H](O)[C@@H]2O)cc1 (1 nM) | 107
COc1cc(OC2CCN(C)CC2)ccc1Nc1ncc2c(n1)n(C1CCCC1)c(=O)n2C [AZ 3146] (1 nM) | 102
CN(C)c1nc(N(C)C)nc(N(C)C)n1 [Altretamine] (1 nM) | 104
O=C(/C=C/c1cccc(S(=O)(=O)Nc2ccccc2)c1)NO [Belinostat] (1 nM) | 95.8
O=P1(N(CCCl)CCCl)NCCCO1 (stereo not given) [Cyclophosphamide] (4 nM) | 96.9

tested on: CAL-51; test: as above; conditions: incubation time: 72 h
Method in brief: as §1

Structure (SMILES) | normalised response [%]
N#Cc1ccc(COC[C@H]2O[C@@H](n3c(NCc4ccc(Cl)c(Cl)c4)nc4c(N)ncnc43)[C@H](O)[C@@H]2O)cc1 (1 nM) | 78.2
COc1cc(OC2CCN(C)CC2)ccc1Nc1ncc2c(n1)n(C1CCCC1)c(=O)n2C [AZ 3146] (1 nM) | 101
CN(C)c1nc(N(C)C)nc(N(C)C)n1 [Altretamine] (1 nM) | 103
O=C(/C=C/c1cccc(S(=O)(=O)Nc2ccccc2)c1)NO [Belinostat] (1 nM) | 75.1
O=P1(N(CCCl)CCCl)NCCCO1 (stereo not given) [Cyclophosphamide] (4 nM) | 81.2

tested on: HCC1599; test: as above; conditions: incubation time: 72 h
Method in brief: as §1

Structure (SMILES) | normalised response [%]
N#Cc1ccc(COC[C@H]2O[C@@H](n3c(NCc4ccc(Cl)c(Cl)c4)nc4c(N)ncnc43)[C@H](O)[C@@H]2O)cc1 (1 nM) | 110
COc1cc(OC2CCN(C)CC2)ccc1Nc1ncc2c(n1)n(C1CCCC1)c(=O)n2C [AZ 3146] (1 nM) | 125
CN(C)c1nc(N(C)C)nc(N(C)C)n1 [Altretamine] (1 nM) | 90.2
O=C(/C=C/c1cccc(S(=O)(=O)Nc2ccccc2)c1)NO [Belinostat] (1 nM) | 97.6
O=P1(N(CCCl)CCCl)NCCCO1 (stereo not given) [Cyclophosphamide] (4 nM) | 107

tested on: CAL-85-1; test: as above; conditions: incubation time: 72 h
Method in brief: as §1

Structure (SMILES) | normalised response [%]
N#Cc1ccc(COC[C@H]2O[C@@H](n3c(NCc4ccc(Cl)c(Cl)c4)nc4c(N)ncnc43)[C@H](O)[C@@H]2O)cc1 (1 nM) | 104
COc1cc(OC2CCN(C)CC2)ccc1Nc1ncc2c(n1)n(C1CCCC1)c(=O)n2C [AZ 3146] (1 nM) | 99.7
CN(C)c1nc(N(C)C)nc(N(C)C)n1 [Altretamine] (1 nM) | 96.4
O=C(/C=C/c1cccc(S(=O)(=O)Nc2ccccc2)c1)NO [Belinostat] (1 nM) | 97.8
O=P1(N(CCCl)CCCl)NCCCO1 (stereo not given) [Cyclophosphamide] (4 nM) | 97.4
